Results from US8449923B2, “Methods for inhibiting sensory nerves by topically administering strontium-containing compositions to keratinized skin” (Cosmederm Bioscience, Inc., priority 1994, dated 2013).
Where two headings read alike, the source gives them in different places.

Key:
[1] = system: skin irritation induced by lactic acid (face); test: Lactic acid irritation trial, pretreatment test (anti-irritant applied 15 minutes before irritant); type: in vivo, human; settings: pretreatment tests; for Percent Inhibition (average inhibition of cumulative irritation): cation salt 250 mM, lactic acid irritant; for Percent Inhibition: representative subject panels, 250 mM, vehicle VIS DIFFERENCE
Protocol: (§1) The majority of the trials were conducted using lactic acid as the skin irritant, and proceeded generally as follows.
(§2) Tests were conducted in multiple panels of from 7 to 12 subjects each. Subjects were instructed not to wear any makeup or facial lotions to the clinic the day of testing. The subjects were instructed to wash their face with Ivory bar soap in the clinic prior to application of test solutions.
(§3) Lactic acid skin-irritant compositions were formulated in an appropriate vehicle prior to application to the skin of the subjects.
(§4) Test anti-irritant formulations containing measured amounts of strontium salts (concentration 250 mM) were applied either (a) 15 minutes prior to application to the skin of the skin-irritant (“pretreatment test”) or (B) simultaneously with the application of the skin-irritant (“time zero test”). […] Controls were performed by applying corresponding formulation(s) (pretreatment and/or skin-irritant composition) with an equimolar amount of sodium chloride to a contralateral portion of the subject's skin. Typically, the test materials were applied to the face of the subject.
(§5) All test solutions (including controls) were applied in a double blind, randomized fashion using the prepared solutions as previously placed in coded vial designated for use on either the right or left side of the face (or other test area). Solutions were typically applied using a cotton swab (six strokes) or sponge applicator to the face and cheek area extending from the midline of the nose over to the center of the cheek and from the cheek bone down to the jaw line. Application was made first to the right side and then to the left.
(§6) Sensory assessment scores were recorded for each treated side of the subject's skin every minute for 15 minutes or until three consecutive scores of “zero” irritation were obtained. The following scaled scores were used for sensory assessment:
(§7) Symptom scores were cumulated, separately for the cation-treated and control-treated areas, for each individual and also for the panel as a whole. Individuals not reporting a cumulative score of at least “7” on at least one treatment area were excluded (in a blinded fashion) from further analysis in order to ascertain anti-irritant efficacy with respect to the more severely-susceptible test subjects. From a practical standpoint, scores of “0” and “1” on the above scale would be considered highly desirable for a commercial product because such a response would likely not result in a consumer ceasing to use a product. Some consumers, in fact, might view the “barely perceptible” sensations represented by a score of 1 to be an indication that a facial treatment skin care product (especially an exfoliant) was working as advertised. By contrast, irritation scores of “2”, “3” and “4” would likely often result in a consumer never purchasing the product again.

[2] = system: skin irritation induced by lactic acid
Protocol: Additional studies of anti-irritant activity using varying concentrations of strontium cations were conducted in order to assess the dose-response behavior of the present formulations. The lactic acid irritation protocol described above was used, in which the anti-irritant cation component was strontium nitrate (31-500 mM).

[3] = system: irritation induced by capsaicin; settings: 250 mM; capsaicin challenge; pretreatment
From the text: The test compounds of the invention were formulated in Elizabeth Arden “Visible Difference Refining Toner”, with the Toner mixed with equimolar sodium chloride serving as the control. The test solutions (and control) were provided in coded vials for application to either the right or left arms. A template (1.5 in.×4.0 in.) was placed on each forearm to mark the challenge area. The pre-treatment solutions containing the anti-irritant cation of the invention were applied to extend 1 inch beyond the marked challenge area in all directions and were allowed to dry for 5 minutes. 0.5 ml of 0.15% capsaicin cream or a swab moistened with capsaicin solution was thereafter applied to each arm by the clinical technician, who rubbed in the cream using gloved fingers. Application and scoring of test and control formulations was performed sequentially for each arm. Scoring was recorded every minute starting at 5 minutes post-application for 10 minutes and then every 5 minutes for 15 minutes (30 minutes total) for the cream, and every minute starting immediately for 15 minutes for the solution. Assessment was made using the irritation scale described above for the lactic acid test, and a simultaneous visual assessment of erythema was made by the monitoring technician.

[4] = system: skin irritation induced by lactic acid (face); test: Lactic acid irritation trial, time zero test (anti-irritant applied simultaneously with irritant); type: in vivo, human; settings: for Percent Inhibition (average inhibition of cumulative irritation) / Percent Inhibition: time zero tests; for Percent Inhibition (average inhibition of cumulative irritation): cation salt 250 mM, lactic acid irritant; for Percent Inhibition: representative subject panels, vehicle 10% EtOH
Protocol: as §1, §2, §3, §4, §5, §6, §7

SMILES	Percent Inhibition (average inhibition of cumulative irritation) [1]	Percent Inhibition [1]	Percent Inhibition (cumulative irritation) ([2]; concentration 31 mM)	Percent Inhibition (cumulative irritation) ([2]; concentration 62 mM)	Percent Inhibition (cumulative irritation) ([2]; concentration 125 mM)	Percent Inhibition (cumulative irritation) ([2]; concentration 250 mM)	Percent Inhibition (cumulative irritation) ([2]; concentration 500 mM)	overall efficacy in one representative panel (FIGS. 5-8) [3]	overall efficacy in one panel (FIGS. 1-4) ([4]; 250 mM, time zero test, one panel)	Percent Inhibition (average inhibition of cumulative irritation) [4]	Percent Inhibition ([4]; 250 mM)
CC(=O)[O-].CC(=O)[O-].[Sr+2] [Strontium acetate]	46%	46%									
O=[N+]([O-])[O-].O=[N+]([O-])[O-].[Sr+2] [Strontium nitrate]	50%	56%	77%	32%	42%	72%	82%	the overall efficacy of the subject formulation is evident	the overall efficacy of the subject formulation is clear	65%	64%
[Cl-].[Cl-].[Sr+2] [Strontium chloride]	25%	20%								60%	58%
